Measured values as given in patent US11986446B2, “Method of administration of gamma hydroxybutyrate with monocarboxylate transporters” (priority 2013, dated 2024).
Like-named read-outs stand apart in the source and are kept apart here.

Experiments:
healthy male subjects = format: in vivo, human
[1] = Ibuprofen combined with Xyrem, pharmacokinetics of GHB
[2] = Phase 1 crossover study of Xyrem with and without divalproex sodium, pharmacokinetics of GHB; format: in vivo, human
Excerpt: This study is designed to compare the pharmacokinetic (PK) and pharmacodynamic (PD) endpoints of Xyrem® with and without co-administration of divalproex sodium extended-release tablets. The crossover design allows within-subject comparisons of the PK and PD of Xyrem® dosed alone and in combination with divalproex sodium extended-release tablets. PD parameters include the following: Cognitive Drug Research (CDR) System tasks: Karolinska Sleepiness Scale (KSS), Simple Reaction Time (SRT), Digit Vigilance (DV), Choice Reaction Time (CRT), Tracking and Numeric Working Memory (NWM).
This was a Phase 1, randomized, double-blind, placebo-controlled, five-period, crossover study in healthy male subjects. The study was conducted in approximately 24 healthy subjects to ensure completion of 16 subjects. Following Screening and Baseline procedures, eligible subjects were randomized to receive Xyrem® and Xyrem® placebo in a crossover fashion in Periods 1 and 2; were dosed with divalproex sodium extended-release tablets for 10 consecutive days in Period 3; and while continuing to take divalproex sodium extended-release tablets, were randomized to receive Xyrem® and Xyrem® placebo in a crossover fashion in Periods 4 and 5 (Table 1).
Subjects were randomized to receive two 3 g doses of Xyrem® or Xyrem® placebo 4 hours apart in a crossover fashion at approximately 9 AM (first dose) and 1 PM (second dose) on Days 1 and 3. PK and PD parameters were evaluated during the 24 hours postdose.
Blood samples (4 mL) for sodium oxybate concentrations were collected at predose and at specified time-points up to 12 hours after the first dose of Xyrem® or Xyrem® placebo on Days 1 and 3. A PD Battery including the Karolinska Sleepiness Scale, Simple Reaction Time task, Digit Vigilance task, Choice Reaction Time task, Tracking task, and Numeric Working Memory task was administered at planned timepoints up to X hours after first dose (X hours after second dose), and safety were monitored at specified timepoints on Days 1 and 3 as well as throughout the periods.
All subjects received divalproex sodium extended-release tablets 1250 mg at approximately 8 AM on Days 5 through 14. Blood samples (4 mL) for valproic acid concentrations were collected before the divalproex sodium dose (to determine trough concentration for assessment of steady state) on Days 13 and 14. Safety was monitored at specified timepoints as well as throughout the period.
Subjects continued taking 1250 mg divalproex sodium extended-release tablets at approximately 8 AM on Days 15 through 18. Subjects were also randomized to receive two 3 g doses of Xyrem® or Xyrem® placebo in a crossover fashion at approximately 9 am (first dose) and 1 pm (second dose) on Days 15 and 18. The first dose of Xyrem® or Xyrem® placebo was taken approximately 1 hour after dosing with divalproex sodium extended-release tablets, and the second dose of Xyrem® or Xyrem® placebo was taken 4 hours after the first Xyrem®/Xyrem® placebo dose.
Blood samples (4 mL) to measure plasma sodium oxybate concentrations were collected at pre Xyrem®/Xyrem® placebo dose and at specified timepoints after the first Xyrem® or Xyrem® placebo dose on Days 15 and 18. Blood samples (4 mL) to measure plasma valproic acid concentrations were collected pre divalproex sodium dose and at specified timepoints after the dose of divalproex sodium extended-release tablets on Day 15 and 18. […]

[3] = healthy volunteers; 12.5, 25, and 50 mg/kg; cited from earlier work
[4] = alcohol dependent patients, oral administration; cited from earlier work
healthy adults = assay: Ibuprofen combined with Xyrem, PD (KSS and CDR System tasks); format: in vivo, human
Experimental: The effects of Ibuprofen were evaluated when combined with Xyrem® in a manner similar to the above. […] However, it was observed that renal excretion of Xyrem® doubled upon concomitant administration of Ibuprofen and Xyrem®.

[5] = GHB and divalproate concomitantly administered, statistically significant
[6] = GHB co-administered with valproate, attributed to GHB dehydrogenase inhibition

For `CCCC(CCC)C(=O)O` [Divalproex sodium, 2-propylvaleric acid], the “effects on cognitive function or sleepiness” value (healthy male subjects; in vivo) was “no consistent or notable effects on cognitive function or sleepiness”.
With `O=C(O)CCCO` [Xyrem®, sodium oxybate] the PD effects (healthy subjects; GHB and diclofenac concomitantly administered) was “significantly reduced”, the “Digit Vigilance Accuracy, change from baseline” value (healthy subjects; Xyrem co-dosed with diclofenac vs Xyrem alone, at 1 and 2.5 h) was “significantly less impairment than Xyrem® alone” and the “Power of Attention, change from baseline” value (healthy subjects; Xyrem co-dosed with diclofenac vs Xyrem alone, at 1 and 4.5 h) was “narrowly missed significance”. The “Power of Attention, change from baseline” value (healthy subjects; Xyrem co-dosed with diclofenac vs Xyrem alone, at 0.5 h) was “significantly less impairment than Xyrem® alone”, the “Power of Attention, change from baseline” value (healthy subjects; Xyrem co-dosed with diclofenac vs diclofenac alone, 6.5 h and 8 h) was “impairments at two timepoints compared to diclofenac alone which at 6.5 h was significant and a trend at 8 h” and the “Choice Reaction Time Mean, impairments” value (healthy subjects; in vivo) was “significantly smaller than with Xyrem® alone”. The “Digit Vigilance Mean Reaction Time, change from baseline” value (healthy subjects; in vivo) was “significantly less impairment than Xyrem® alone”, the PD effects (healthy male subjects; GHB and divalproate concomitantly administered) was “more pronounced effects with concomitant administration” and the “sleepiness, attention, working memory and tracking task performance” value (healthy male subjects; Xyrem alone, two 3 g doses, healthy volunteers) was “induces sleepiness and produces impairments to attention, working memory and performance on a tracking task”. The “Tracking Distance from Target, change from baseline” value (healthy male subjects; Xyrem and divalproex sodium together (A+C) vs Xyrem alone (A), at 4 and 8 hours) was “statistically significant difference by a slightly delayed recovery for the combination”, the “Numeric Working Memory Sensitivity Index, change from baseline” value (healthy male subjects; Xyrem and divalproex sodium together (A+C) vs Xyrem alone (A), at 4.5 through 8 hours) was “showed a difference” and the “Continuity of Attention, change from baseline” value (healthy male subjects; Xyrem and divalproex sodium together (A+C) vs Xyrem alone (A), at 4 hours and 8 hours) was “slightly delayed recovery for the combination”. The “Digit Vigilance Accuracy, change from baseline” value (healthy male subjects; Xyrem and divalproex sodium together vs Xyrem alone, at 2.5 and 4 hours) was “statistically reliably different greater impairment to Xyrem® alone”, the impairments over time (healthy male subjects; Xyrem dosed with divalproex sodium vs divalproex sodium alone (compared with Xyrem vs its placebo)) was “more consistent statistically significant impairments over time were seen with the combination” and the “impairments to cognitive function and sleepiness” value (healthy male subjects; co-administration of Xyrem and divalproex vs Xyrem alone) was “greater impairments to cognitive function and sleepiness than were seen with Xyrem® alone”. The “Numeric Working Memory Mean Reaction Time, change from baseline” value (healthy male subjects; in vivo) was “statistically significant differences at 2.5, 5 and 8 hours when the combination produced greater impairment”, the “Simple Reaction Time Mean, change from baseline” value (healthy male subjects; in vivo) was “statistically reliably greater impairments than Xyrem® alone” and the “plasma levels, lower” value ([1]; GHB concomitantly administered with ibuprofen, statistically significant) was ~5%. For the same compound, the “renal excretion of GHB” value ([1]; concomitant administration of ibuprofen) was “doubled”, the “renal clearance, increased” value [2, 5] was 30% and the “systemic exposure (plasma AUC), increased” value [2, 5] was 26%. For the same compound, the “AUC, increase” value [2, 6] was “about 15%”, the “Cmax, increase” value [2, 6] was “about 15%” and the “renal excretion of GHB, increase” value ([2]; upon co-administration of valproate) was 30%. For the same compound, the “oral absorption and elimination processes, dose dependency” value [3] was “capacity-limited though the degree of dose dependency was moderate”, the “absorption into and elimination from the systemic circulation” value [4] was “fast processes” and the “unchanged drug recovered in the urine” value [4] was “Virtually no unchanged drug could be recovered in the urine”.
In the case of `CC(C)Cc1ccc(C(C)C(=O)O)cc1` (centres unmarked) [Ibuprofen, iso-butyl-propanoic-phenolic acid], the “Karolinska Sleepiness Scale, Simple Reaction Time, Digit Vigilance, Choice Reaction Time, Tracking and Numeric Working Memory” value (healthy adults) is reported as “No differences were seen”.
In the case of `O=C(O)Cc1ccccc1Nc1c(Cl)cccc1Cl` [diclofenac, 2-(2,6-dichloranilino) phenylacetic acid], the “effect of diclofenac on the effects of Xyrem on Power of Attention, simple and choice reaction time” value (healthy subjects; co-dosed with Xyrem, during the hour after the first dose of Xyrem) is reported as “significantly reduced the effects of the compound”, the “effect on sleepiness or cognitive function” value (healthy subjects; diclofenac alone (50 mg qid + Xyrem placebo)) is reported as “no effect on sleepiness or cognitive function” and the “interaction on feelings of sleepiness” value (healthy subjects; diclofenac co-dosed with Xyrem) is reported as “no interaction”. The “protective effect on subjects ratings of alertness” value (healthy subjects; diclofenac co-dosed with Xyrem) was “not seen”, the “impairments (interaction) over the hour following the first dose of Xyrem” value (healthy subjects; diclofenac co-dosed with Xyrem vs Xyrem alone) was “impairments being notably smaller” and the “greater cognitive impairment or sleepiness on any measure” value (healthy subjects; in vivo) was “no evidence on any measure of greater cognitive impairment or sleepiness”.
